Results: patent US12281363B2, “Methods for detecting antiviral-drug resistant virus” (Secretary of State for Health and Social Care, priority 2018, dated 2025)
Read-outs that look alike come from different tables or passages of the source.

Tested on: HSV-2
Experiment: Plaque reduction assay, HSV-2 clinical isolates on Vero cells
Type: cell-based
Settings: for IC50: Human alphaherpesvirus 2, Vero
Excerpt: Viral isolates were used to infect a sub-confluent monolayer of Vero cells at a concentration of 75 or 50 plaque forming units (PFU) per well for HSV-1 and HSV-2, respectively. […] CMC medium typically used to create a semisolid interface and prevents indiscrimate viral spreading. Other materials (e.g. agar) may also be used to create this interface.
Cells were fixed with 10% formalin and stained with crystal violet before enumeration of the plaques (microscopic observation or use of fluorescent antibodies for detection is also suitable). The data obtained from these experiments were then expressed as percent inhibition of viral infectivity relative to the no drug control.
Definitions of phenotypic drug susceptibility classification as sensitive or resistant were as follows: ACV, <3 μM or >40 μM; PCV, <10 μM or >40 μM; CDV, <24 μM or >30 μM; FOS, <250 μM or >400 μM; and ACV, <6.5 μM or >40 μM; PCV, <38 μM or >40 μM; FOS, <250 μM or >400 μM for HSV-1 and HSV-2, respectively. Any IC50 values falling in between these sensitive and resistant cut-offs were reported as intermediate resistance.
The phenotype (i.e. reactivity to a drug) of the virus was characterised by the plaque reduction assay as described above. The present inventors have characterised the resistance-causing phenotype of a large number of TK and DNA pol mutations.

SMILES: Nc1nc2c(ncn2COCCO)c(=O)[nH]1 [Aciclovir, acyclovir]
- Level of resistance (HSV-2 DNA pol R628G (18820>G)): weak/intermediate resistance
- IC50 (isolate HPG001, HSV-2 TK A125T (373G>A), read-out: Drug susceptibility (IC50 value)): 1.53 µM
- IC50 (isolate HPG001, HSV-2 pol H714R (2141A>G), read-out: Drug susceptibility (IC50 value)): 1.53 µM
- IC50 (isolate HPG004, HSV-2 pol M494T (1481T>C), also pol S729N, read-out: Drug susceptibility (IC50 value)): > 40 µM
- IC50 (isolate HPG007, HSV-2 pol R628G (1882C>G), read-out: Drug susceptibility (IC50 value)): 28.6 µM
- IC50 (isolate HPG017, HSV-2 TK Q186H (558G>T), read-out: Drug susceptibility (IC50 value)): 10.2 µM
- IC50 (isolate HPG022, HSV-2 TK E213D (639A>C), read-out: Drug susceptibility (IC50 value)): 4.46 µM
- IC50 (isolate HPG022, HSV-2 pol D174Y (520G>T), read-out: Drug susceptibility (IC50 value)): 4.46 µM
- IC50 (isolate HPG023, HSV-2 TK Q186H (558G>T), read-out: Drug susceptibility (IC50 value)): 12.1 µM
- IC50 (isolate HPG024, HSV-2 TK E213D (639A>C), read-out: Drug susceptibility (IC50 value)): 2.5 µM
- IC50 (isolate HPG028, HSV-2 TK 98stop or A94fs (276delG, 278delG, 279delG, or 280delG), read-out: Drug susceptibility (IC50 value)): > 40 µM
- IC50 (isolate HPG028, HSV-2 pol E776Q (2326G>C), also TK deletion (G) nt 276-280, read-out: Drug susceptibility (IC50 value)): > 40 µM
- IC50 (isolate HPG028, HSV-2 pol R775C, R775W (2323C>T; 2325C>G), also TK deletion (G) nt 276-280, read-out: Drug susceptibility (IC50 value)): > 40 µM
- IC50 (isolate HPG030, HSV-2 TK Q90stop (268C>T), read-out: Drug susceptibility (IC50 value)): > 40 µM
- IC50 (isolate HPG030, HSV-2 pol E761K (2281G>A), also TK Q90stop, read-out: Drug susceptibility (IC50 value)): > 40 µM
- IC50 (isolate HPG036, HSV-2 TK E84K (250G>A), read-out: Drug susceptibility (IC50 value)): > 40 µM
- IC50 (isolate HPG038, HSV-2 TK R34C (100C>T), read-out: Drug susceptibility (IC50 value)): 2.04 µM
- IC50 (isolate HPG044, HSV-2 TK M86L (256A>C), read-out: Drug susceptibility (IC50 value)): > 40 µM
- IC50 (isolate HPG048, HSV-2 TK Q90stop (268C>T), read-out: Drug susceptibility (IC50 value)): > 40 µM
- IC50 (isolate HPG048, HSV-2 pol E761K (2281G>A), also TK Q90stop, read-out: Drug susceptibility (IC50 value)): > 40 µM
- IC50 (isolate HPG057, HSV-2 TK 98stop or A94fs (276delG, 278delG, 279delG, or 280delG), read-out: Drug susceptibility (IC50 value)): > 40 µM
- IC50 (isolate HPG058, HSV-2 TK 183stop or P154fs (458delC, 459delC, 460delC, or 461delC), read-out: Drug susceptibility (IC50 value)): 36.2 µM
- IC50 (read-out: Drug susceptibility (IC50 value), isolate HPG034, HSV-2 TK L313S (938A>C)): 35.8 µM
- IC50 (read-out: Drug susceptibility (IC50 value), isolate HPG056, HSV-2 pol M447L (1339A>C)): 1.56 µM
- IC50 (read-out: Drug susceptibility Aciclovir (ACV), isolate HPG001, HSV-2 TK A125T (373G>A)): < 6.5 µM
- IC50 (read-out: Drug susceptibility Aciclovir (ACV), isolate HPG001, HSV-2 pol H714R (2141A>G)): < 6.5 µM
- IC50 (read-out: Drug susceptibility Aciclovir (ACV), isolate HPG004, HSV-2 pol M494T (1481T>C), also pol S729N): > 40 µM
- IC50 (read-out: Drug susceptibility Aciclovir (ACV), isolate HPG007, HSV-2 pol R628G (1882C>G)): 6.5 to 40 µM
- IC50 (read-out: Drug susceptibility Aciclovir (ACV), isolate HPG017, HSV-2 TK Q186H (558G>T)): 6.5 to 40 µM
- IC50 (read-out: Drug susceptibility Aciclovir (ACV), isolate HPG022, HSV-2 TK E213D (639A>C)): < 6.5 µM
- IC50 (read-out: Drug susceptibility Aciclovir (ACV), isolate HPG022, HSV-2 pol D174Y (520G>T)): < 6.5 µM
- IC50 (read-out: Drug susceptibility Aciclovir (ACV), isolate HPG023, HSV-2 TK Q186H (558G>T)): 6.5 to 40 µM
- IC50 (read-out: Drug susceptibility Aciclovir (ACV), isolate HPG024, HSV-2 TK E213D (639A>C)): < 6.5 µM
- IC50 (read-out: Drug susceptibility Aciclovir (ACV), isolate HPG028, HSV-2 TK 98stop or A94fs (276delG, 278delG, 279delG, or 280delG)): > 40 µM
- IC50 (read-out: Drug susceptibility Aciclovir (ACV), isolate HPG028, HSV-2 pol E776Q (2326G>C), also TK deletion (G) nt 276-280): > 40 µM
- IC50 (read-out: Drug susceptibility Aciclovir (ACV), isolate HPG028, HSV-2 pol R775C, R775W (2323C>T; 2325C>G), also TK deletion (G) nt 276-280): > 40 µM
- IC50 (read-out: Drug susceptibility Aciclovir (ACV), isolate HPG030, HSV-2 TK Q90stop (268C>T)): > 40 µM
- IC50 (read-out: Drug susceptibility Aciclovir (ACV), isolate HPG030, HSV-2 pol E761K (2281G>A), also TK Q90stop): > 40 µM
- IC50 (read-out: Drug susceptibility Aciclovir (ACV), isolate HPG034, HSV-2 TK L313S (938A>C)): 6.5 to 40 µM
- IC50 (read-out: Drug susceptibility Aciclovir (ACV), isolate HPG036, HSV-2 TK E84K (250G>A)): > 40 µM
- IC50 (read-out: Drug susceptibility Aciclovir (ACV), isolate HPG038, HSV-2 TK R34C (100C>T)): < 6.5 µM
- IC50 (read-out: Drug susceptibility Aciclovir (ACV), isolate HPG044, HSV-2 TK M86L (256A>C)): > 40 µM
- IC50 (read-out: Drug susceptibility Aciclovir (ACV), isolate HPG048, HSV-2 TK Q90stop (268C>T)): > 40 µM
- IC50 (read-out: Drug susceptibility Aciclovir (ACV), isolate HPG048, HSV-2 pol E761K (2281G>A), also TK Q90stop): > 40 µM
- IC50 (read-out: Drug susceptibility Aciclovir (ACV), isolate HPG056, HSV-2 pol M447L (1339A>C)): < 6.5 µM
- IC50 (read-out: Drug susceptibility Aciclovir (ACV), isolate HPG057, HSV-2 TK 98stop or A94fs (276delG, 278delG, 279delG, or 280delG)): > 40 µM
- IC50 (read-out: Drug susceptibility Aciclovir (ACV), isolate HPG058, HSV-2 TK 183stop or P154fs (458delC, 459delC, 460delC, or 461delC)): 6.5 to 40 µM
